Patent EP1189615B1, “ENDOPARASITICIDAL SYNERGISTIC COMBINATION CONTAINING CYCLIC DEPSIPEPTIDES AND PIPERAZINES” (Bayer HealthCare AG, priority 1999, dated 2000)
Where two headings read alike, the source gives them in different places.

Tests used:
Heterakis spumosa = settings: Maus
From the text: (§1) Die Durchführung der biologischen Tests erfolgte entsprechend den bekannten Verfahren (Plant et. al. Pesticide Science, 1996, 48, S. 351 ff.).

Nematospiroides dibius = settings: Maus
From the text: as §1

Trichinella spiralis = settings: in-vitro
From the text: as §1

## C1CNCCN1 [Piperazin]
Heterakis spumosa; Dosis 4 x 100 mg/kg
  Wirkung: 0 (Wurmreduktion <50 %)
Heterakis spumosa; Dosis 4 x 250 mg/kg
  Wirkung: 1 (Wurmreduktion 50-75 %)
Nematospiroides dibius; Dosis 2 x 2000 mg/kg
  Wirkung: 2 (Wurmreduktion 75-90 %)
Nematospiroides dibius; Dosis 4 x 1000 mg/kg
  Wirkung: 1 (Wurmreduktion 50-75 %)
Trichinella spiralis; Konzentration 500 µg/ml
  Wirkung: 0
Trichinella spiralis; Konzentration 1000 µg/ml
  Wirkung: 0-1
